Data: US20160251403A1, “PEPTIDE COMBINATIONS AND USES THEREOF IN TREATING DUST MITE ALLERGY” (ALK-ABELLO A/S, priority 2013, published 2016)
Substitutions are numbered along the chain they refer to. No end group written: not given here.

What was measured:
DPA10202-DPB10501 = biological target: T1, DPA10202-DPB10501 (Homo sapiens, UniProt P04440+P20036, A42M/A65V/A84E/F191V/F64L/G113D/G114E/K142R/L158P/M116V/M62Q/P115A/Q81R/R125K/T114A/T199I/T259P/V234M); assay: Competitive MHC class II binding assay, DPA10202-DPB10501; conditions: positive binding at cutoff 1000 nM; read-out: HLA-DPA10202-DPB10501
T1 sequence (P04440 30-258 A65V/A84E/F64L/G113D/G114E/M116V/P115A/R125K/T199I/V234M): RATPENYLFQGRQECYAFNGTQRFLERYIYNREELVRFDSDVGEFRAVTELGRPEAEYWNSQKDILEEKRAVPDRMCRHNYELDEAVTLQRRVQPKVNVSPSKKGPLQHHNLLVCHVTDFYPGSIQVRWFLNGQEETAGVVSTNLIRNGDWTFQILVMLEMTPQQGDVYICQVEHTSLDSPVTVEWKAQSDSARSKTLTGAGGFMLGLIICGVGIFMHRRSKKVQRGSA
T1 sequence (P20036 29-260 A42M/F191V/K142R/L158P/M62Q/Q81R/T114A/T259P): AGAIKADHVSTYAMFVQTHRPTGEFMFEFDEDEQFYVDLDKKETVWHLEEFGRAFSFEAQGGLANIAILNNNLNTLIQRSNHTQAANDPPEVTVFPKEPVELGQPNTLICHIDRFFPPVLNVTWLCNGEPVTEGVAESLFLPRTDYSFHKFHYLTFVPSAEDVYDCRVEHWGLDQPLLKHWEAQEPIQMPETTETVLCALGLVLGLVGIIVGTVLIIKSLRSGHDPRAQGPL

DRB1_0901 = DRB1_0901 (Homo sapiens, UniProt P01903+P01911, A100R/A103E/D57H/D86V/F55Y/F60I/F76Y/I96F/K127E/L162R/M171V/P40D/Q125H/Q99R/R33Q/R42F/S133A/S66N/T210M/V115G/W38K/Y107V/Y59G/Y89S); assay: Competitive MHC class II binding assay, DRB1_0901;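 further: displacement of a radiolabeled probe peptide from purified HLA class II protein, bound counts read after two to four days incubation, six concentrations spanning 100,000-fold, unlabeled probe as reference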
DRB1_1501 = DRB1_1501 (Homo sapiens, UniProt P01903+P01911); assay: Competitive MHC class II binding assay, DRB1_1501
DRB1_0701 = DRB1_0701 (Homo sapiens, UniProt P01903+P01911, A100R/A102G/A103Q/D57E/D86V/E43K/F76Y/K127E/L162R/M171V/P40G/Q125H/Q99D/R33Q/R42Y/R54Q/S133A/S66F/T210M/V115G/Y107V/Y59L/Y89S); assay: Competitive MHC class II binding assay, DRB1_0701;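 further: displacement of a radiolabeled reference peptide from purified HLA class II protein, with complex-bound radioactivity counted after 2–4 days of incubation and six concentrations spanning a 100,000-fold range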
DRB1_0802 = DRB1_0802 (Homo sapiens, UniProt P01903+P01911, A100R/A103L/A169T/F76Y/H45Y/I96F/K41T/L162R/M171V/P40S/Q125H/Q178H/Q39Y/Q99D/R218S/R42G/S66Y/V115G/W38E); assay: Competitive MHC class II binding assay, DRB1_0802
DRB1_0401 = DRB1_0401 (Homo sapiens, UniProt P01903+P01911, A100K/A169T/F76Y/I96L/K127E/L162R/M171V/N62H/P40V/Q125Y/R42H/S133A/S149N/S66Y/V115G/V209L/W38E); assay: Competitive MHC class II binding assay, DRB1_0401
DRB5_0101 = DRB5_0101 (Homo sapiens, UniProt P01903+Q30154); assay: Competitive MHC class II binding assay, DRB5_0101
DRB4_0101 = DRB4_0101 (Homo sapiens, UniProt P01903+P13762, G164S); assay: Competitive MHC class II binding assay, DRB4_0101
DRB1_1302 = DRB1_1302 (Homo sapiens, UniProt P01903+P01911, A100E/A169T/K41T/L162R/M171V/P40S/Q125H/Q178H/Q39Y/Q99D/R42S/S66N/T262R/V115G/W38E/Y61H); assay: Competitive MHC class II binding assay, DRB1_1302;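 further: purified HLA class II protein incubated two to four days with a radiolabeled reference binder and test peptide at six concentrations over a 100,000-fold range, complex-bound radioactivity counted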
DRB1_0101 = DRB1_0101 (Homo sapiens, UniProt P01903+P01911, A100R/D57E/F55L/F60I/F76Y/I96L/L162R/M171V/P40L/Q125E/R42F/V115G/Y59C); assay: Competitive MHC class II binding assay, DRB1_0101;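 further: competition against a radiolabeled probe peptide (0.1–1 nM) for purified HLA class II protein over 2–4 days, bound counts read after antibody capture, six competitor levels across 100,000-fold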
DQA10501-DQB10301 = DQA10501-DQB10301 (Homo sapiens, UniProt P01909+P01920); assay: Competitive MHC class II binding assay, DQA10501-DQB10301
DRB3_0202 = DRB3_0202 (Homo sapiens, UniProt P01903+P79483, A212P/D57E/F66Y/L67A/R103Q/R218S/R40L/S89Y/T80R/V86D/Y55F/Y59H); assay: Competitive MHC class II binding assay, DRB3_0202
DQA10101-DQB10501 = DQA10101-DQB10501 (Homo sapiens, UniProt P01909+P01920, A157S/A45G/A70V/C70R/D89V/E106S/E118A/E183D/E77G/F83G/G63E/H151Q/H199R/H252R/H253Q/I129T/I235V/I88M/INS77G/K197Q/L107V/L117V/L119Y/L178F/L71W/L74F/L85Q/L91A/L98M/M46L/N214S/P87R/Q116E/Q256R/Q57E/Q76K/R102G/R240Q/R75S/R78G/S102Y/S185I/S41F/S97I/T103A/T109R/T121G/T122I/T172A/T86R/V148I/V68A/V73E/Y34C/Y58G/Y62H); assay: Competitive MHC class II binding assay, DQA10101-DQB10501; conditions: positive binding at cutoff 1000 nM; read-out: HLA-DQA10101-DQB10501
DQA10401-DQB10402 = assay: Competitive MHC class II binding assay, DQA10401-DQB10402
DPA10103-DPB10402 = biological target: T2, DPA10103-DPB10402 (Homo sapiens, UniProt P04440+P20036, A65V/A84D/A85E/L207M); assay: Competitive MHC class II binding assay, DPA10103-DPB10402
T2 sequence (P20036 29-260): T1 sequence (P20036 29-260 A42M/F191V/K142R/L158P/M62Q/Q81R/T114A/T259P) with M14A, Q34M, R53Q, A86T, R114K, P130L, V163F, P231T
T2 sequence (P04440 30-258 A65V/A84D/A85E): T1 sequence (P04440 30-258 A65V/A84E/F64L/G113D/G114E/M116V/P115A/R125K/T199I/V234M) with L35F, E55D, A56E, D84G, E85G, A86P, V87M, K96R, I170T, M205V

DQA10501-DQB10201 = DQA10501-DQB10201 (Homo sapiens, UniProt P01909+P01920, A45G/A70V/D89A/E106A/E77G/E98D/H199R/L107V/N214S/P84L/P87L/T103K/T109R/T172A/T60S/V78E/V99I/Y58L/Y62S/Y69I/Y79F); assay: Competitive MHC class II binding assay, DQA10501-DQB10201
DQA10301-DQB10302 = DQA10301-DQB10302 (Homo sapiens, UniProt P01909+P01920, A209T/A45G/C70Q/D89A/DUP78-78/E183D/E77G/F237L/G63E/H199R/I129T/K197E/L178F/L74F/L98V/Q57E/Q76R/S185I/S97I/T217I/T49S/V73L/Y58L); assay: Competitive MHC class II binding assay, DQA10301-DQB10302
DRB3_0101 = DRB3_0101 (Homo sapiens, UniProt P01903+P79483); assay: Competitive MHC class II binding assay, DRB3_0101
DRB1_0405 = DRB1_0405 (Homo sapiens, UniProt P01903+P01911, A100R/A169T/D86S/F76Y/I96L/K127E/L162R/M171V/N62H/P40V/Q125Y/R42H/S133A/S149N/S66Y/V115G/V209L/W38E); assay: Competitive MHC class II binding assay, DRB1_0405
DQA10102-DQB10602 = assay: Competitive MHC class II binding assay, DQA10102-DQB10602; conditions: read-out: HLA-DQA10102-DQB10602; positive binding at cutoff 1000 nM

Row | Sequence | IC50 (DPA10202-DPB10501) [nM] | IC50 (DRB1_0901) [nM] | IC50 (DRB1_1501) [nM] | IC50 (DRB1_0701) [nM] | IC50 (DRB1_0802) [nM] | IC50 (DRB1_0401) [nM] | IC50 (DRB5_0101) [nM] | IC50 (DRB4_0101) [nM] | IC50 (DRB1_1302) [nM] | IC50 (DRB1_0101) [nM] | IC50 (DQA10501-DQB10301) [nM] | IC50 (DRB3_0202) [nM] | IC50 (DPA10103-DPB10402) [nM] | IC50 (DQA10301-DQB10302) [nM] | IC50 (DRB3_0101) [nM] | other results
1 | GVLASAIATHAKIR [HDM26B, reference compound] | < 1000 | < 1000 | < 1000 | < 1000 | < 1000 | < 1000 | < 1000 | < 1000 | < 1000 | < 1000 | < 1000 | < 1000 |  |  |  | 
2 | NGYGYFAANIDLMM [pep-011] |  | < 1000 |  | < 1000 |  | < 1000 |  | < 1000 | < 1000 | < 1000 | < 1000 | < 1000 | < 1000 | < 1000 | < 1000 | IC50 (DQA10101-DQB10501): < 1000 nM; binding to HLA Class II allele DQA10401-DQB10402 (DQA10401-DQB10402; as shown in Table 16a): binds to at least the same alleles as peptide 041; IC50 (DQA10401-DQB10402; read-out: HLA-DQA10401-DQB10402, positive binding at cutoff 1000 nM): < 1000 nM; IC50 (DQA10501-DQB10201): < 1000 nM; binding to HLA Class II allele DQA10501-DQB10201 (DQA10501-DQB10201; as shown in Table 16a): binds to at least the same alleles as peptide 041; binding to HLA Class II allele DRB3_0101 (DRB3_0101; as shown in Table 16a): binds to at least the same alleles as peptide 041; binding to HLA Class II allele DRB1_1302 (DRB1_1302; as shown in Table 16a): binds to at least the same alleles as peptide 041; IC50 (DRB1_0405): < 1000 nM; binding to HLA Class II allele DRB3_0202 (DRB3_0202; as shown in Table 16a): binds to at least the same alleles as peptide 041
3 | NYSQIYPPNVNKIREA [HDM101A, reference compound] |  |  | < 1000 | < 1000 |  |  |  |  | < 1000 | < 1000 |  | < 1000 | < 1000 |  |  | 
4 | VLASAIATHAKIRD [pep-012] | < 1000 | < 1000 |  | < 1000 |  |  | < 1000 |  |  | < 1000 | < 1000 |  |  |  | < 1000 | 
5 | VMGDDGVLASAIATHAKIRD [pep-099] | < 1000 | < 1000 |  |  | < 1000 | < 1000 | < 1000 |  | < 1000 | < 1000 | < 1000 |  |  |  |  | IC50 (DQA10102-DQB10602): < 1000 nM
6 | VMGDNGVLASAIATHAKIRD [pep-125] | < 1000 | < 1000 |  |  | < 1000 |  | < 1000 |  |  | < 1000 | < 1000 |  |  | < 1000 |  | 
